Measured values: patent US10995363B2, “Nucleotide analogs” (ABBOTT MOLECULAR INC., priority 2013, dated 2021)

Legend:
[1] = target: T1, Therminator II DNA polymerase (Thermococcus sp., UniProt Q56366, A485L/D141A/E143A/Y409V); assay: Polymerase extension assay: incorporation of 3′-O-propargyl-dNTP at the 3′ end of a primer on KRAS template; format: biochemical, Thermococcus sp. 9∘N; conditions: 2 mM MnCl2, KRAS template, 35 cycles, size analysis by gel electrophoresis
T1 construct: purchased New England BioLabs
T1 sequence (Q56366 whole entry D141A/E143A/Y409V/A485L): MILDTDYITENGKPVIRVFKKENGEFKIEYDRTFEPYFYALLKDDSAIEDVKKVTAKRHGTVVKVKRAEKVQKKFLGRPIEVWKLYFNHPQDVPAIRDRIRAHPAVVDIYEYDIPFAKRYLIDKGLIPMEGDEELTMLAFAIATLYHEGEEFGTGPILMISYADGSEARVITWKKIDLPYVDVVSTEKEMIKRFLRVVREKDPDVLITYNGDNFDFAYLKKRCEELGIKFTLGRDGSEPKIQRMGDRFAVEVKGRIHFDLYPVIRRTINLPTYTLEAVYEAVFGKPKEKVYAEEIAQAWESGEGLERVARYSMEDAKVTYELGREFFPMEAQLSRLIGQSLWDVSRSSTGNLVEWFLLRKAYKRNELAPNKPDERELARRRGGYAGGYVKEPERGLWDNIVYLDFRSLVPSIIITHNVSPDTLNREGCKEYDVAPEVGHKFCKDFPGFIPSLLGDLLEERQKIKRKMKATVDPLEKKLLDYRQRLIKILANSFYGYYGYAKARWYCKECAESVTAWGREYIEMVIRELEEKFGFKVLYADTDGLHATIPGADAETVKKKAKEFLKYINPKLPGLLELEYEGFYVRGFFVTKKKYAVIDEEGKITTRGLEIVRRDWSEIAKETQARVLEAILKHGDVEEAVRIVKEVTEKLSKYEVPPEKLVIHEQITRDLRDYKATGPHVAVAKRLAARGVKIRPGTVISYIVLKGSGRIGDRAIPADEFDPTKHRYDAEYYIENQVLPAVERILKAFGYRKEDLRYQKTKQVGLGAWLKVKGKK
Description: During the development of embodiments of the technology provided herein, experiments were conducted to assess the incorporation of 3′-O-propargyl-dNTPs into a nucleic acid by a polymerase. In particular, experiments were conducted to evaluate the accurate incorporation of 3′-O-propargyl-dNTPs into a nucleic acid and to evaluate the terminating activity of the 3′-O-propargyl-dNTPs. To assess these characteristics of the nucleotide analogs provided herein, polymerase extension assays were conducted using a template nucleic acid having a sequence from human KRAS (e.g., KRAS exon 2 and flanking intron sequences) and a complementary primer (Table 2).
To test incorporation of a 3′-O-propargyl-dTTP into a nucleic acid, a polymerase extension reaction mix was assembled comprising 20 mM Tris-HCl, 10 mM (NH4)SO4, 10 mM KCl, 2 mM MnCl2, 0.1% Triton X-100, 200 μmol 3′-O-propargyl-dTTP, 6.25 μmol of primer R_ke2_trP1_T_bio (SEQ ID NO: 2), and 2 units of Therminator II DNA polymerase (New England BioLabs) in a 25-μl final reaction volume. A volume of 0.5 μmol of the KRAS template (SEQ ID NO: 1) was used as template (Table 2). The polymerase extension reaction was performed using a temperature cycling profile comprising exposing the reaction to a temperature of 95° C. for 2 minutes followed by 35 cycles of 95° C. for 15 seconds, 55° C. for 25 seconds, and 65° C. for 35 seconds.
(§1) After the polymerase extension reaction, 1 μl of the reaction mix was used directly for nucleic acid size analysis by gel electrophoresis (e.g., using an Agilent 2100 Bioanalyzer and High Sensitivity DNA Assay Chip).
Additional polymerase extension experiments were performed using the reaction conditions described above and replacing the 3′-O-propargyl-dTTP and the primer R_ke2_trP1_T_bio with 3′-O-propargyl-dATP and the primer R_ke2_trP1_A bio (SEQ ID NO: 3); 3′-O-propargyl-dCTP and the primer R_ke2_trP1_C bio (SEQ ID NO: 5); and 3′-O-propargyl dGTP and the primer R_ke2_trP1_G bio (SEQ ID NO: 4).

[2] = target: T1, Therminator II DNA polymerase; assay: Ladder fragment generation with natural dNTPs and one 3′-O-propargyl-dNTP; format: biochemical, Thermococcus sp. 9∘N; conditions: natural dNTPs plus one 3′-O-propargyl-dNTP, KRAS template, 50 cycles
Description: During the development of embodiments of the technology provided herein, experiments were conducted to assess using the nucleotide analogs of the present technology to generate nucleic acid fragments that terminate at base-specific positions. In particular, reaction mixtures were produced and tested that included both natural dNTPs and each of the 3′-O-propargyl-dNTPs individually.
To test the fragment generation by 3′-O-propargyl-dTTP, a DNA fragment generation reaction mix was prepared comprising 20 mM Tris-HCl, 10 mM (NH4)SO4, 10 mM KCl, 2 mM MnCl2, 0.1% Triton X-100, 1000 μmol dATP, 1000 μmol dCTP, 1000 μmol dGTP, 1000 μmol dTTP, 200 μmol 3′-O-propargyl-dTTP, 6.25 μmol of primer R_ke2_trP1_T_bio (SEQ ID NO: 2), and 2 units of THERMINATOR II DNA polymerase (New England BioLabs) in a 25-μl final reaction volume. A volume of 0.5 μmol of the KRAS template (SEQ ID NO: 1) was used as template. The polymerase extension reaction was performed using a temperature cycling profile comprising exposing the reaction to a temperature of 95° C. for 2 minutes followed by 50 cycles of 95° C. for 15 seconds, 55° C. for 25 seconds, and 65° C. for 35 seconds.
as §1
Additional polymerase extension experiments were performed using the reaction conditions described above and replacing the 3′-O-propargyl-dTTP with 3′-O-propargyl-dATP, 3′-O-propargyl-dCTP, or 3′-O-propargyl dGTP.

SMILES: C#CCO[C@H]1C[C@H](n2cc(C)c(=O)[nH]c2=O)O[C@@H]1COP(=O)(O)OP(=O)(O)OP(=O)(O)O [3′-O-propargyl-dTTP, 3′-O-propargyl-2′-deoxythymidine-5′-triphosphate]
- amounts of the two populations of nucleic acids (primer length vs primer plus one base) [1]: approximately equal
- incorporation at the 3′ end of the primer [1]: successful incorporation
- generation of nucleic acid fragments terminated at base-specific positions [2]: generated a population of nucleic acid fragments having a range of sizes corresponding to the expected lengths
